Experimental data: patent US9556378B2, “Chelating agent precursors, fluids containing them, and their use” (AKZO NOBEL CHEMICALS INTERNATIONAL B.V., priority 2011, dated 2017)

Key:
Type in all cases: physicochemical
[1] = Viscosity of chelate esters, Brookfield DV-II viscometer, spindle 25; conditions: 25° C.
Method: (§1) In addition, where possible, the following physical properties of the chelate esters were determined at 25° C.: • Viscosity in mPas • Surface tension in mN/m • Density in kg/m^3
(§2) The viscosity was determined with a Brookfield DV-II viscometer equipped with spindle 25, which is suitable to measure high-viscous liquids. The principle of operation of the DV-II is to drive a specific spindle which is immersed in the test fluid. The viscous drag of the fluid against the spindle is measured by a calibrated spring. The viscosity is calculated from the rotational speed, type, and the torque of the spindle. In addition, the surface tension was determined with a bubble pressure tensiometer. The tensiometer produces gas bubbles at a constant rate and blows them through a capillary which is submerged in the sample liquid. The pressure (P) inside of the bubble continues to increase and the maximum value is obtained when the bubble has the completely hemispherical shape whose radius corresponds exactly to the radius of the capillary.

[2] = Surface tension, bubble pressure tensiometer; conditions: 25° C.
Method: as §1, §2
By following each step of the bubble formation, change of bubble radius, and the corresponding pressure, the dynamic surface tension can be determined using the Laplace equation in the reduced form for spherical bubble shape within the liquid, equation: σ=(ΔPmax·Rcap)/2 where: σ=dynamic surface tension ΔPmax=maximum pressure drop Rcap=radius of capillary

[3] = Density, gravimetric (0.50 ml in weighted pipette); conditions: for Density: 25° C.; for density compared with water (in words): not measurable for the highly viscous esters
Method: as §1
The density was determined gravimetrically by slowly sucking up exactly 0.50 ml of the chelate ester in a weighted pipette and by weighing the total weight of the pipette and the chelate-ester, the weight of 0.50 ml of chelate ester could be determined.

[4] = Solubility of chelate ester in water
[5] = Hydrolysis rate of chelate esters followed by Fe-TSV (released chelate acid); conditions: for effect of pH on hydrolysis rate (release of chelating agent): pH adjusted with caustic to 7 versus ~1, FIG. 4; for rate of hydrolysis (in words): 20 wt % ester in demi water, 90° C., Fe-TSV, FIG. 1-3; for solubility of the chelate acid compared with EDTA acid: observed on hydrolysis of the esters, solid EDTA is formed
Method: (§3) In several experiments the hydrolysis of the chelate esters of Example 2 was investigated. First, the hydrolysis rate of the chelate esters was determined with ^1H and ^13C-NMR. […] Secondly, the hydrolysis rate was followed by determination of the Fe-TSV, which gives the concentration of the released chelate acid. To determine the Fe-TSV the chelate ester was added to demi water in a 5 ml glass vial, resulting in an ester concentration of 20 wt %. The mixture was continuously homogenized by shaking and a treatment in the ultrasonic bath. Subsequently, the vial was placed in a stove at 90° C. to simulate well conditions. After certain time intervals a sample was taken and analyzed on Fe-TSV. The percentage of hydrolysis is defined by:
The calculated chelate concentration at the start is calculated from the intake of the ester. The value is corrected for the purity as measured by NMR, assuming a 100% conversion of the corresponding chelate.

[6] = Hydrolysis rate of chelate esters by 1H and 13C-NMR; conditions: 70° C.
Method: as §3, with “Fe-TSV.” for “Fe-TSV. The percentage of hydrolysis is defined by:”

[7] = pH of the ester in water
[8] = 1 wt % / 1% slurry in water, product as formed (acidic)

Compound	Viscosity [1]	Surface tension [2]	Density [3]	Soluble in water (pH = 0.5) [4]	other results
COC(=O)CCC(C(=O)OC)N(CC(=O)OC)CC(=O)OC (stereo not shown) [GLDA 4 methyl ester, GLDA-tetramethyl ester]	–	–	–	Yes	time to almost complete hydrolysis [6]: ~2 days; rate of hydrolysis (in words) [5]: nearly the same speed of hydrolysis
O=C(O)CC[C@@H](C(=O)O)N(CC(=O)O)CC(=O)O [GLDA, glutamic acid N,N-diacetic acid]	–	–	–	–	solubility of the chelate acid compared with EDTA acid [5]: significantly higher
CCCOC(=O)CN(CCN(CC(=O)OCCC)CC(=O)OCCC)CC(=O)OCCC [EDTA 4 propyl ester, EDTA-tetrapropyl ester, reference compound]	260,000 mPas	51.3 mN/m	> 1 g/mL	Yes	density compared with water (in words) [3]: clearly higher than water; Soluble in water (pH = ~7) [4]: no (2 phases); effect of pH on hydrolysis rate (release of chelating agent) [5]: decreased slightly with increasing pH
CCOC(=O)CCC(C(=O)OCC)N(CC(=O)OCC)CC(=O)OCC (stereo not shown) [GLDA tetra ethyl ester]	–	–	–	–	pH ([7]; 1% slurry in water, less acidic product after treatment with 1 eq Na2CO3): ~9; pH [7, 8]: 1.8
COC(=O)CN(CCN(CC(=O)OC)CC(=O)OC)CC(=O)OC [EDTA 4 methyl ester, EDTA-tetramethyl ester, reference compound]	–	–	–	Yes	Soluble in water (pH = ~7) [4]: Yes; rate of hydrolysis (in words) [5]: hydrolyzed much faster than the corresponding GLDA or MGDA-methyl ester
CC(C(=O)O)N(CC(=O)O)CC(=O)O (stereo not shown) [MGDA, methylglycine N,N-diacetic acid]	–	–	–	–	solubility of the chelate acid compared with EDTA acid [5]: significantly higher
GLDA Mono Ethyl Ester	–	–	–	–	pH [7, 8]: 1.8
CCCCOCCOC(=O)CCC(C(=O)OCCOCCCC)N(CC(=O)OCCOCCCC)CC(=O)OCCOCCCC (stereo not shown) [GLDA 4 EGMBE, GLDA-tetraEMGBE ester]	67 mPas	47.8 mN/m	1.06 g/mL	no (2 phases)	–
CCCCOC(=O)CCC(C(=O)OCCCC)N(CC(=O)OCCCC)CC(=O)OCCCC (stereo not shown) [GLDA 4 butyl ester, GLDA-tetrabutyl ester]	38 mPas	41.3 mN/m	1.04 g/mL	no (2 phases)	–
CCCCOC(=O)CN(CCN(CC(=O)OCCCC)CC(=O)OCCCC)CC(=O)OCCCC [EDTA 4 butyl ester, EDTA-tetrabutyl ester, reference compound]	8,100 mPas	52.6 mN/m	> 1 g/mL	no (2 phases)	density compared with water (in words) [3]: clearly higher than water

The next lines start with results.

Viscosity [1]	Surface tension [2]	Density [3]	Soluble in water (pH = 0.5) [4]	Compound	other results
178 mPas	69.2 mN/m	1.11 g/mL	no (2 phases)	CCCOC(=O)CCC(C(=O)OCCC)N(CC(=O)OCCC)CC(=O)OCCC (stereo not shown) [GLDA 4 propyl ester, GLDA-tetrapropyl ester]	Soluble in water (pH = ~7) [4]: no (2 phases); effect of pH on hydrolysis rate (release of chelating agent) [5]: decreased slightly with increasing pH
–	–	–	Yes	COC(=O)CN(CC(=O)OC)C(C)C(=O)OC (stereo not shown) [MGDA 3 methyl ester, MGDA-trimethyl ester]	time to almost complete hydrolysis [6]: ~2 days; rate of hydrolysis (in words) [5]: nearly the same speed of hydrolysis
